Data: US11696913B2, “Prolonged ectoparasite-controlling agent for animal” (MITSUI CHEMICALS AGRO, INC., priority 2017, dated 2023)

Legend:
[1] = system: Rhipicephalus (Boophilus) microplus; test: In vitro injection test with Rhipicephalus (Boophilus) microplus (BOOPMI Inj); conditions: 168 h, laid fertile eggs after 7 days, read-out: acaricidal activity; for pest or weed control at 32 ng: dose 0.032 μg/animal injected; for pest or weed control at 0.00016 mg: dose 0.16 μg/animal injected; for pest or weed control at 0.0008 mg: dose 0.8 μg/animal injected
In short: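 Test substance in DMSO; 1 μl injected into abdomen of each of 5 engorged adult female ticks, then held at 28° C., 85% rel. hum. Activity scored after 7 days from laying of fertile eggs: 100% = no eggs or all infertile, 0% = all eggs fertile.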

[2] = system: Ctenocephalides felis; test: Ctenocephalides felis in-vitro feeding test with fleas (CTECFE oral); conditions: 48 hours, read-out: insecticidal feeding activity; for pest or weed control at 0.16 ppm: dose 0.16 ppm in citrated cattle blood; for pest or weed control at 0.8 ppm: dose 0.8 ppm in citrated cattle blood; for pest or weed control at 4 ppm: dose 4 ppm in citrated cattle blood; for pest or weed control at 0.032 ppm: dose 0.032 ppm in citrated cattle blood
In short: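 About 20 unfed adult cat fleas fed through parafilm on citrated cattle blood containing test substance (DMSO solution diluted in blood), held at about 37° C. Kill rate scored after 48 hours, 100% meaning all fleas dead.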

[3] = system: Dermacentor variabilis; test: In vitro contact test with adult hard ticks (Dermacentor variabilis); conditions: read-out: acaricidal activity; for pest or weed control at 0.2 µg/cm2, 0.2 µg/cm2: dose 0.2 μg/cm^2, 48 h; for pest or weed control at 1 µg/cm2, 1 µg/cm2: dose 1 μg/cm^2, 48 h
In short: (§1)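 Adult R. sanguineus, I. ricinus, D. variabilis or A. americanum nymphs exposed in glass vials coated with compound from acetone (900 ppm gives 5 μg/cm^2). Held 48 h at room temperature (R. sanguineus) or 21° C., 85% rel. hum.; then heated at 45-50° C. ≤5 min, motionless or uncoordinated ticks scored dead/moribund.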

[4] = system: Laodelphax striatellus; test: Insecticidal testing against small brown planthopper; format: in vivo; conditions: 144 h, concentration 100 ppm, sprayed rice seedlings, after 6 days, read-out: pesticidal rate
Description: Insecticidal Testing Against Small Brown Planthopper (Laodelphax striatellus)
An additional test was carried out with 10 small brown planthoppers by preparing an acetone solution of the testing compound diluted to a predetermined concentration, spraying the solution onto rice seedlings and air drying the rice seedlings. The medicament was all used as received. The rice seedlings were placed in a constant-temperature room at 25° C., and the survival rate was investigated after 6 days. The test was carried out by means of one group of 10 pests.

[5] = system: Ctenocephalides felis; test: In vitro contact test with fleas; conditions: read-out: insecticidal activity; for pest or weed control at 0.04 µg/cm2, 0.04 µg/cm2: dose 0.04 μg/cm^2, dead or moribund fleas after 48 h; for pest or weed control at 0.2 µg/cm2, 0.2 µg/cm2: dose 0.2 μg/cm^2, dead or moribund fleas after 48 h; for pest or weed control at 1 µg/cm2, 1 µg/cm2: dose 1 μg/cm^2, dead or moribund fleas after 48 h
In short: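 Adult male and female cat fleas (5-10 per tube) placed in glass tubes coated with compound from acetone solution (900 ppm gives 5 μg/cm^2), kept at room temperature and ambient humidity. After 48 h, motionless or uncoordinated fleas scored dead or moribund; activity expressed as % dead or moribund.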

[6] = system: Spodoptera litura; test: Insecticidal testing against common cutworm; format: in vivo; conditions: foliar, 144 h, concentration 100 ppm, cabbage leaf dip, second-stage larvae, after 6 days, read-out: pesticidal rate
From the text: Insecticidal Testing Against Common Cutworm (Spodoptera litura)

[7] = system: Plutella xylostella; test: Insecticidal testing against diamondback moth; format: in vivo; conditions: foliar, 144 h, concentration 100 ppm, cabbage leaf dip, third-stage larvae, after 6 days, read-out: pesticidal rate
From the text: Insecticidal Testing Against Diamondback Moth (Plutella xylostella)

[8] = system: Amblyomma americanum; test: In vitro contact test with hard ticks (Amblyomma americanum nymphs); conditions: read-out: acaricidal activity; for pest or weed control at 0.2 µg/cm2, 0.2 µg/cm2: dose 0.2 μg/cm^2, 48 h; for pest or weed control at 1 µg/cm2, 1 µg/cm2: dose 1 μg/cm^2, 48 h
In short: as §1

[9] = system: Rhipicephalus sanguineus; test: In vitro contact test with adult hard ticks (Rhipicephalus sanguineus); conditions: read-out: acaricidal activity; for pest or weed control at 1 µg/cm2, 1 µg/cm2: dose 1 μg/cm^2, 48 h; for pest or weed control at 0.2 µg/cm2, 0.2 µg/cm2: dose 0.2 μg/cm^2, 48 h
In short: as §1

`CN(C(=O)c1ccc(F)cc1F)c1cccc(C(=O)Nc2c(I)cc(C(F)(C(F)(F)F)C(F)(F)F)cc2C(F)(F)F)c1F` [Compound 56] was tested, and the pest or weed control at 32 ng [1] was 100%, the pest or weed control at 0.00016 mg [1] was 100% and the pest or weed control at 0.0008 mg [1] was 100%. It also gave a pest or weed control at 0.16 ppm [2] of 95%, a pest or weed control at 0.8 ppm [2] of 95% and a pest or weed control at 4 ppm [2] of 95%. The pest or weed control at 0.2 µg/cm2, 0.2 µg/cm2 [3] was 90%, the pest or weed control at 1 µg/cm2, 1 µg/cm2 [3] was 90% and the pest or weed control at 100 ppm [4] was ≥ 70%. It also gave a pest or weed control at 0.04 µg/cm2, 0.04 µg/cm2 [5] of 95%, a pest or weed control at 0.2 µg/cm2, 0.2 µg/cm2 [5] of 95% and a pest or weed control at 1 µg/cm2, 1 µg/cm2 [5] of 95%. The pest or weed control at 100 ppm [6] was ≥ 70%, the pest or weed control at 100 ppm [7] was ≥ 70% and the pest or weed control at 0.04 µg/cm2, 0.04 µg/cm2 ([8]; dose 0.04 μg/cm^2, 48 h) was 90%. The pest or weed control at 0.2 µg/cm2, 0.2 µg/cm2 [8] was 90% and the pest or weed control at 1 µg/cm2, 1 µg/cm2 [8] was 90%.

In the case of `CN(C(=O)c1ccc(F)c(F)c1)c1cccc(C(=O)Nc2c(I)cc(C(F)(C(F)(F)F)C(F)(F)C(F)(F)F)cc2C(F)(F)F)c1F` (stereo not drawn) [Compound 77], the pest or weed control at 32 ng [1] is reported as 100%, the pest or weed control at 0.00016 mg [1] is reported as 100% and the pest or weed control at 0.0008 mg [1] is reported as 100%. It also gave a pest or weed control at 0.16 ppm [2] of 95%, a pest or weed control at 0.8 ppm [2] of 95% and a pest or weed control at 4 ppm [2] of 95%. It also gave a pest or weed control at 1 µg/cm2, 1 µg/cm2 [9] of 90%, a pest or weed control at 0.2 µg/cm2, 0.2 µg/cm2 [3] of 90% and a pest or weed control at 1 µg/cm2, 1 µg/cm2 [3] of 90%. The pest or weed control at 100 ppm [4] was ≥ 70%, the pest or weed control at 0.2 µg/cm2, 0.2 µg/cm2 [5] was 95% and the pest or weed control at 1 µg/cm2, 1 µg/cm2 [5] was 95%. The pest or weed control at 100 ppm [6] was ≥ 70%, the pest or weed control at 100 ppm [7] was ≥ 70% and the pest or weed control at 1 µg/cm2, 1 µg/cm2 [8] was 90%.

With `O=C(Nc1cccc(C(=O)Nc2c(I)cc(C(F)(C(F)(F)F)C(F)(F)C(F)(F)F)cc2C(F)(F)F)c1F)c1ccc(Cl)c(Cl)c1` (stereo not drawn) [Compound 76] the pest or weed control at 0.00016 mg [1] was 100%, the pest or weed control at 0.0008 mg [1] was 100% and the pest or weed control at 0.8 ppm [2] was 95%. The pest or weed control at 4 ppm [2] was 95%, the pest or weed control at 0.04 µg/cm2, 0.04 µg/cm2 ([9]; dose 0.04 μg/cm^2, 48 h) was 90% and the pest or weed control at 0.2 µg/cm2, 0.2 µg/cm2 [9] was 90%. It also gave a pest or weed control at 1 µg/cm2, 1 µg/cm2 [9] of 90%, a pest or weed control at 0.2 µg/cm2, 0.2 µg/cm2 [3] of 90% and a pest or weed control at 1 µg/cm2, 1 µg/cm2 [3] of 90%. For the same molecule, the pest or weed control at 100 ppm [4] was ≥ 70%, the pest or weed control at 100 ppm [6] was ≥ 70% and the pest or weed control at 100 ppm [7] was ≥ 70%. For the same molecule, the pest or weed control at 1 µg/cm2, 1 µg/cm2 [8] was 90%.

`CN(C(=O)c1ccc(F)cc1)c1cccc(C(=O)Nc2c(Br)cc(C(F)(C(F)(F)F)C(F)(F)C(F)(F)F)cc2OC(F)(F)F)c1F` (stereo not drawn) [Compound 94] gave a pest or weed control at 6.4 ng ([1]; dose 0.0064 μg/animal injected) of 100%, a pest or weed control at 32 ng [1] of 100% and a pest or weed control at 0.00016 mg [1] of 100%. The pest or weed control at 0.0008 mg [1] was 100%, the pest or weed control at 0.032 ppm [2] was 95% and the pest or weed control at 0.16 ppm [2] was 95%. The pest or weed control at 0.8 ppm [2] was 95%, the pest or weed control at 4 ppm [2] was 95% and the pest or weed control at 0.2 µg/cm2, 0.2 µg/cm2 [9] was 90%. The pest or weed control at 1 µg/cm2, 1 µg/cm2 [9] was 90%, the pest or weed control at 1 µg/cm2, 1 µg/cm2 [3] was 90% and the pest or weed control at 100 ppm [4] was ≥ 70%. The pest or weed control at 100 ppm [6] was ≥ 70%, the pest or weed control at 100 ppm [7] was ≥ 70% and the pest or weed control at 0.2 µg/cm2, 0.2 µg/cm2 [8] was 90%. For the same molecule, the pest or weed control at 1 µg/cm2, 1 µg/cm2 [8] was 90%.

Molecule `CN(C(=O)c1ccc(C(F)F)nc1)c1cccc(C(=O)Nc2c(I)cc(C(F)(C(F)(F)F)C(F)(F)F)cc2C(F)(F)F)c1F` [Compound 87] has a pest or weed control at 32 ng [1] of 100%, a pest or weed control at 0.00016 mg [1] of 100% and a pest or weed control at 0.0008 mg [1] of 100%. It also gave a pest or weed control at 0.032 ppm [2] of 95%, a pest or weed control at 0.16 ppm [2] of 95% and a pest or weed control at 0.8 ppm [2] of 95%. For the same molecule, the pest or weed control at 4 ppm [2] was 95%, the pest or weed control at 0.2 µg/cm2, 0.2 µg/cm2 [3] was 90% and the pest or weed control at 1 µg/cm2, 1 µg/cm2 [3] was 90%. The pest or weed control at 100 ppm [4] was ≥ 70%, the pest or weed control at 0.04 µg/cm2, 0.04 µg/cm2 [5] was 95% and the pest or weed control at 0.2 µg/cm2, 0.2 µg/cm2 [5] was 95%. The pest or weed control at 1 µg/cm2, 1 µg/cm2 [5] was 95%, the pest or weed control at 100 ppm [6] was ≥ 70% and the pest or weed control at 100 ppm [7] was ≥ 70%. It also gave a pest or weed control at 0.2 µg/cm2, 0.2 µg/cm2 [8] of 90% and a pest or weed control at 1 µg/cm2, 1 µg/cm2 [8] of 90%.
